The test system of data set [1] is Rats. As to the kind of experiment: Serum ASS, CPS-1, SULT2A1 and ALT levels after repeated MDMA injections (Ecstasy liver injury). In kind it is in vivo, rat. The settings on record: for Serum ASS compared to control serum levels / Serum SULT2A1 compared to control serum levels: i.p.; for Serum ASS compared to control serum levels: 10 mg/kg injections at 1.5 hr intervals. The protocol:
Serum arginosuccinate synthetase (ASS), carbamoylphosphate synthase-1 (CPS-1) and sulfur transferase isoform A1 (SULT2A1) levels were measured after repeated injections of 10 mg/kg of methylenedioxyacetamine (MDMA) at 1.5 hr intervals.

The test system of data set [2] is Rats. The following applies: Western blot. The procedure:
The analysis shown in Table 1, is performed by Western blot using antibody available through various sources. Typically, 25 μg protein are loaded with two identical sets of 5 samples, separated in 4-20% polyacrylamide gel mini-slabs, and transferred onto PVDF membrane. The membrane is cut in 2 pieces, blocked, probed with two different antibodies, visualized using ECL Plus Kit (Pierce, Inc) and scanned. The membranes are stripped using stripping buffer and re-probed with other two antibody. After visualizing the bands with EDCL Plus Kit and scanning, membranes are stripped again, probed with aII-spectrin antibody and developed using alkaline phosphatase detection method. For accurate assessment of molecular mass of developed proteins, two sets of protein standards are added and developed simultaneously (Magic Markers, Invitrogen, Inc).
Blood is collected from rat heart at the end of experimental procedures. Plasma is obtained from K-EDTA preserved blood by centrifugation. 20 μl of plasma or serum is mixed with 180 μl of RIPA buffer (with proteases inhibitors), vortexed, incubated on ice for 30 min and centrifuged. Supernatants are removed, aliquots mixed with sample buffer 1:1, heated and loaded onto gel.
On the technique in general: A western blot detects proteins with antibodies after separation by electrophoresis.

Data set [3] concerns Rats. As to the kind of experiment: Plasma ASS and ALT accumulation after carbon tetrachloride injection (chlorinated hydrocarbon liver injury). Type of data set: in vivo, rat. The following applies: for Plasma ASS increase relative to control (FIG. 30A): rat model; for Plasma ALT accumulation / Plasma ASS increase compared to controls: rats; for Plasma ASS increase compared to controls: 0.5 ml/kg CCL4 in vegetable oil. The protocol: Rats (n=6) were injected with 0.5 ml/kg of carbon tetrachloride (CCL4) in vegetable oil. Plasma arginosuccinate synthetase (ASS) and alanine transaminase (ALT) accumulation was measured 1 hr and 24 hr after injection. ASS increased over 15-fold compared to controls after 1 hr and over 50-fold compared to controls after 24 hr (p<0.0001), as shown in FIG. 30A.

In the case of `CNC(C)Cc1ccc2c(c1)OCO2` (stereo not drawn) [MDMA, methylenedioxyacetamine], the “Serum ASS compared to control serum levels” value is “significant increase” in the data set with Rats [1] (total 20 mg/kg, p<0.01) and “significant increase” with Rats [1] (total 40 mg/kg, p<0.001). Also, the “Serum SULT2A1 compared to control serum levels” value is listed as “significant increase” in the data set with Rats [1] (total 20 mg/kg, p<0.001) and “significant increase” in the data set on Rats [1] (total 40 mg/kg, p<0.0001). In the data set with Rats [1] (repeated i.p. injection, total 40 mg/kg, 24 hr after last injection, PAGE), the “Serum carbamoylphosphate synthase-1 (CPS-1) levels” value is listed as “increased levels”. Also, in the data set with Rats [1] (repeated i.p. injections of 10 mg/kg), the “Alanine transferase (ALT)” value was “No increase”.
`CCO` [alcohol]: the ALT in plasma result in the data set on Rats [2] (chronic alcohol rats) is on record as “increased”. The GST-BB in plasma entry with Rats [2] (rats chronically treated with alcohol) is given as “significant increase”. Besides, in the data set with Rats [2] (rats with chronic alcoholic administration), the “Intact ASS protein (46 kDa) in plasma” value is “absent”.
Consider `ClC(Cl)(Cl)Cl` [carbon tetrachloride], for which the “Plasma ASS increase relative to control (FIG. 30A)” value was 15 times with Rats [3] (1 hr after injection) and 50 times in the data set on Rats [3] (24 hr post injection). Moreover, the “Plasma ALT accumulation” value is given as “did not increase significantly” with Rats [3] (0.5 ml/kg CCL4, 1 hr after injection) and “significant increase” with Rats [3] (0.5 ml/kg CCL4, 24 hr after injection, p=0.041). The “Plasma ASS increase compared to controls” value in the data set with Rats [3] (1 hr after injection) was “over 15 fold”; in the data set with Rats [3] (24 hr after injection, p<0.0001), “over 50 fold”.

The values are drawn from patent US8048638B2, “Biomarkers of liver injury” (priority 2005, dated 2011).
